Reference: patent US8152784B2, “Method for treating or preventing steroid-induced glaucoma” (Wisconsin Alumni Research Foundation, priority 2005, dated 2012)

How the values were obtained:
[1] = tested on: trabecular meshwork cells; assay: CLAN formation in trabecular meshwork cells on fibronectin-coated cover slips with Src kinase inhibitor; type: cell-based, human; conditions: PP2 20 μM
Protocol: (§1) Cultured, diploid human trabecular meshwork cells obtained from trabecular meshwork explants were plated on coverslips coated with extracellular matrix materials, including poly-L-lysine (20 nM in PBS), fibronectin (100 nM in PBS), type I collagen (20 nM in PBS), type IV collagen (20 nM in PBS), vitronectin (20 nM in PBS), vascular cell adhesion molecule (VCAM-1, an α4β1 ligand; 20 nM in PBS), fibronectin III7-10 domain (an α5β1 ligand; 20 nM in PBS), fibronectin III12-14 domain (20 nM in PBS), or fibronectin IICS domains (20 nM in PBS), or activating antibodies to β1 (anti-B3B11; Chemicon Int'l, Inc.; Temecula, Calif.; 10 μg/ml), β3 (anti-AP-5; The Blood Center of Southeastern Wisconsin; Milwaukee, Wis.; 8 μg/ml), or α2β1 (anti-JBS2; Chemicon Int'l, Inc.; 6 μg/ml) integrins. In experiments using antibodies as substrates, coverslips were pre-coated with 1:100 unconjugated goat anti-mouse IgG (Jackson Immunoresearch, Inc.; West Grove, Pa.). In some instances, anti-β3 antibodies were used as soluble ligands. […]
CLAN formation was assessed by immunofluorescence microscopy. […] Anti-F-actin was detected using either Alexa 488 conjugated goat anti-rabbit IgG or Alexa 488 conjugated donkey anti-rabbit IgG. All monoclonal antibodies were detected using Alexa 546 conjugated goat anti-mouse IgG. […]

[2] = tested on: human trabecular meshwork cells; assay: CLAN formation in cultured human trabecular meshwork cells spread on coated coverslips, immunofluorescence microscopy; type: cell-based; conditions: adsorbed substrate on coverslip, cells spread three hours
Protocol: as §1
CLAN formation was assessed by immunofluorescence microscopy. […] Anti-F-actin was detected using either Alexa 488 conjugated goat anti-rabbit IgG or Alexa 488 conjugated donkey anti-rabbit IgG. All monoclonal antibodies were detected using Alexa 546 conjugated goat anti-mouse IgG.

Row | Compound | CLAN formation, % of cells ([1]; absence of soluble anti-β3, control cells 10%) | CLAN formation, % of cells ([1]; presence of soluble anti-β3, control cells 30%) | CLAN formation, % of the cells [2]
1 | CC(C)(C)n1nc(-c2ccc(Cl)cc2)c2c(N)ncnc21 [PP2] | 0% | 1% | 
2 | fibronectin |  |  | 13%
